# According to US7384919B2, “Increased solubility flavanolignan preparations” (IVAX Pharmaceuticals s.r.o., priority 2001, dated 2008):
# Assay: Dissolution test of samples filled in hard gelatin capsules (Ph. Eur. Type 2 device)
# Format: physicochemical
# Conditions: Example 2 samples (pure silybin/silydianin), tested as described for Example 1 (capsule, pH 7.5, 100 rpm)
# Protocol: For this purpose 100 mg of each Samples were filled in hard gelatin capsules (number 00). Individual capsules underwent the test on the device as per the Ph. Eur. Type 2 in 2 litres of the dissolution medium pH 7.5 and under 100 revolutions per minute.
smiles,measurement,setting,value
"COc1cc(C2Oc3cc([C@H]4Oc5cc(O)cc(O)c5C(=O)[C@@H]4O)ccc3OC2CO)ccc1O (some centres unmarked) [Silybin, silybin]","Dissolution Values, 30 minutes",after 30 minutes,4.6%
same,"Dissolution Values, 60 minutes",after 60 minutes,4.5%
